Measurements reported in PubChem BioAssay (NCI).
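GI50 = concentration required for 50% inhibition of growth. TGI denotes the concentration required for complete inhibition of growth.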

Assays:
Test in all cases: NCI-60 cell line screen, 384-well format
786-0 renal = tested on: 786-0 renal
A498 renal = tested on: A498 renal
A549 NSCLC = tested on: A549 NSCLC
ACHN renal = tested on: ACHN renal
BT-549 breast = tested on: BT-549 breast
CAKI-1 renal = tested on: CAKI-1 renal
CCRF-CEM leukemia = tested on: CCRF-CEM leukemia
COLO 205 colon = tested on: COLO 205 colon
DU-145 prostate = tested on: DU-145 prostate
EKVX NSCLC = tested on: EKVX NSCLC
HCC-2998 colon = tested on: HCC-2998 colon
HCT-116 colon = tested on: HCT-116 colon
HCT-15 colon = tested on: HCT-15 colon
HL-60(TB) leukemia = tested on: HL-60(TB) leukemia
HOP-62 NSCLC = tested on: HOP-62 NSCLC
HOP-92 NSCLC = tested on: HOP-92 NSCLC
HS 578T breast = tested on: HS 578T breast
HT29 colon = tested on: HT29 colon
IGROV1 ovarian = tested on: IGROV1 ovarian
K-562 leukemia = tested on: K-562 leukemia
KM12 colon = tested on: KM12 colon
LOX IMVI melanoma = tested on: LOX IMVI melanoma
M14 melanoma = tested on: M14 melanoma
MALME-3M melanoma = tested on: MALME-3M melanoma
MCF7 breast = tested on: MCF7 breast
MDA-MB-231 breast = tested on: MDA-MB-231 breast
MDA-MB-435 melanoma = tested on: MDA-MB-435 melanoma
MDA-MB-468 breast = tested on: MDA-MB-468 breast
MOLT-4 leukemia = tested on: MOLT-4 leukemia
NCI-H226 lung = tested on: NCI-H226 lung
NCI-H23 lung = tested on: NCI-H23 lung
NCI-H322M lung = tested on: NCI-H322M lung
NCI-H460 NSCLC = tested on: NCI-H460 NSCLC
NCI-H522 lung = tested on: NCI-H522 lung
NCI/ADR-RES ovarian = tested on: NCI/ADR-RES ovarian
OVCAR-3 ovarian = tested on: OVCAR-3 ovarian
OVCAR-4 ovarian = tested on: OVCAR-4 ovarian
OVCAR-5 ovarian = tested on: OVCAR-5 ovarian
OVCAR-8 ovarian = tested on: OVCAR-8 ovarian
PC-3 prostate = tested on: PC-3 prostate
RPMI-8226 leukemia = tested on: RPMI-8226 leukemia
RXF 393 renal = tested on: RXF 393 renal
SF-268 CNS = tested on: SF-268 CNS
SF-295 CNS = tested on: SF-295 CNS
SF-539 CNS = tested on: SF-539 CNS
SK-MEL-28 melanoma = tested on: SK-MEL-28 melanoma
SK-MEL-5 melanoma = tested on: SK-MEL-5 melanoma
SK-OV-3 ovarian = tested on: SK-OV-3 ovarian
SN12C renal = tested on: SN12C renal
SNB-19 CNS = tested on: SNB-19 CNS
SNB-75 CNS = tested on: SNB-75 CNS
SW-620 colon = tested on: SW-620 colon
T-47D breast = tested on: T-47D breast
TK-10 renal = tested on: TK-10 renal
U251 glioblastoma = tested on: U251 glioblastoma
UACC-62 melanoma = tested on: UACC-62 melanoma
UO-31 renal = tested on: UO-31 renal

Compound `Cn1ccc(S(=O)(=O)N2CCC[C@H](Nc3nccc(-c4c(-c5cccc(O)c5)nc5occn45)n3)C2)n1` has a GI50 ([…]-0 renal) of 7.2 µM, a TGI (786-0 renal) of 32.5 µM and a GI50 (A498 renal) of 3.82 µM. The TGI (A498 renal) was 17.2 µM, the GI50 (A549 NSCLC) was 11.9 µM and the TGI (A549 NSCLC) was 25.2 µM. For the same compound, the GI50 (ACHN renal) was 7.99 µM, the TGI (ACHN renal) was 35.8 µM and the GI50 (BT-549 breast) was 7.47 µM. The TGI (BT-549 breast) was 21.8 µM, the GI50 (CAKI-1 renal) was 4.38 µM and the TGI (CAKI-1 renal) was 19.3 µM. The GI50 (CCRF-CEM leukemia) was 2320 nM, the TGI (CCRF-CEM leukemia) was 4.7 µM and the GI50 (COLO 205 colon) was under 10 nM. The TGI (COLO 205 colon) was 20.2 µM, the GI50 (DU-145 prostate) was 14.4 µM and the TGI (DU-145 prostate) was 33.8 µM. For the same compound, the GI50 (EKVX NSCLC) was 4.71 µM, the TGI (EKVX NSCLC) was 17.5 µM and the GI50 (HCC-2998 colon) was 4.05 µM. For the same compound, the TGI (HCC-2998 colon) was 11.2 µM, the GI50 (HCT-116 colon) was 3.59 µM and the TGI (HCT-116 colon) was 16.4 µM. For the same compound, the GI50 (HCT-15 colon) was 14.2 µM, the TGI (HCT-15 colon) was 35.7 µM and the GI50 (HL-60(TB) leukemia) was 8.06 µM. For the same compound, the TGI (HL-60(TB) leukemia) was 20.1 µM, the GI50 (HOP-62 NSCLC) was 10.4 µM and the TGI (HOP-62 NSCLC) was 30.7 µM. It also gave a GI50 (HOP-92 NSCLC) of 5.55 µM, a TGI (HOP-92 NSCLC) of 26.4 µM and a GI50 (HS 578T breast) of 3.33 µM. For the same compound, the TGI (HS 578T breast) was 15.8 µM, the GI50 (HT29 colon) was 325 nM and the TGI (HT29 colon) was 13.7 µM. For the same compound, the GI50 (IGROV1 ovarian) was 4.14 µM, the TGI (IGROV1 ovarian) was 17 µM and the GI50 (K-562 leukemia) was 7.07 µM. For the same compound, the TGI (K-562 leukemia) was 41.4 µM, the GI50 (KM12 colon) was 15.1 µM and the TGI (KM12 colon) was 35.5 µM. It also gave a GI50 (LOX IMVI melanoma) of 1240 nM, a TGI (LOX IMVI melanoma) of 2830 nM and a GI50 (M14 melanoma) of under 10 nM. For the same compound, the TGI (M14 melanoma) was 1150 nM, the GI50 (MALME-3M melanoma) was under 10 nM and the GI50 (MCF7 breast) was 6.67 µM. It also gave a TGI (MCF7 breast) of 19.9 µM, a GI50 (MDA-MB-231 breast) of 2040 nM and a TGI (MDA-MB-231 breast) of 23.6 µM. For the same compound, the GI50 (MDA-MB-435 melanoma) was 18.7 nM, the TGI (MDA-MB-435 melanoma) was 21.5 µM and the GI50 (MDA-MB-468 breast) was 5.59 µM. For the same compound, the TGI (MDA-MB-468 breast) was 18.5 µM, the GI50 (MOLT-4 leukemia) was 5.62 µM and the TGI (MOLT-4 leukemia) was 17.1 µM. The GI50 (NCI-H226 lung) was 11.2 µM, the TGI (NCI-H226 lung) was 37.8 µM and the GI50 (NCI-H23 lung) was 3.95 µM. It also gave a TGI (NCI-H23 lung) of 17.8 µM, a GI50 (NCI-H322M lung) of 10.1 µM and a TGI (NCI-H322M lung) of 35.9 µM. For the same compound, the GI50 (NCI-H460 NSCLC) was 12.1 µM, the TGI (NCI-H460 NSCLC) was 26.3 µM and the GI50 (NCI-H522 lung) was 15.1 µM. For the same compound, the TGI (NCI-H522 lung) was 29.5 µM, the GI50 (NCI/ADR-RES ovarian) was over 100 µM and the TGI (NCI/ADR-RES ovarian) was over 100 µM. For the same compound, the GI50 (OVCAR-3 ovarian) was 6.66 µM, the TGI (OVCAR-3 ovarian) was 19.2 µM and the GI50 (OVCAR-4 ovarian) was 20.2 µM. For the same compound, the TGI (OVCAR-4 ovarian) was 46 µM, the GI50 (OVCAR-5 ovarian) was 11.9 µM and the TGI (OVCAR-5 ovarian) was 38.4 µM. It also gave a GI50 (OVCAR-8 ovarian) of 13.3 µM, a TGI (OVCAR-8 ovarian) of 36.9 µM and a GI50 (PC-3 prostate) of 8.79 µM. The TGI (PC-3 prostate) was 34 µM, the GI50 (RPMI-8226 leukemia) was 10.5 µM and the TGI (RPMI-8226 leukemia) was 22.4 µM. The GI50 (RXF 393 renal) was 5.61 µM, the TGI (RXF 393 renal) was 19.2 µM and the GI50 (SF-268 CNS) was 3.65 µM. It also gave a TGI (SF-268 CNS) of 13.8 µM, a GI50 (SF-295 CNS) of 20.2 µM and a TGI (SF-295 CNS) of 43.5 µM. It also gave a GI50 (SF-539 CNS) of 12.6 µM, a TGI (SF-539 CNS) of 25.5 µM and a GI50 (SK-MEL-28 melanoma) of under 10 nM. For the same compound, the TGI (SK-MEL-28 melanoma) was 602 nM, the GI50 (SK-MEL-5 melanoma) was 66.9 nM and the TGI (SK-MEL-5 melanoma) was 14 µM. It also gave a GI50 (SK-OV-3 ovarian) of 6.83 µM, a TGI (SK-OV-3 ovarian) of 23.6 µM and a GI50 (SN12C renal) of 8.01 µM. It also gave a TGI (SN12C renal) of 30.7 µM, a GI50 (SNB-19 CNS) of 27.1 µM and a TGI (SNB-19 CNS) of over 100 µM. It also gave a GI50 (SNB-75 CNS) of 4.98 µM, a TGI (SNB-75 CNS) of 31.7 µM and a GI50 (SW-620 colon) of 11.6 µM. For the same compound, the TGI (SW-620 colon) was 25.5 µM, the GI50 (T-47D breast) was 11.1 µM and the TGI (T-47D breast) was 23.4 µM. It also gave a GI50 (TK-10 renal) of 11.3 µM, a TGI (TK-10 renal) of 48.2 µM and a GI50 (U251 glioblastoma) of 12.2 µM. The TGI (U251 glioblastoma) was 26.5 µM, the GI50 (UACC-62 melanoma) was under 10 nM and the GI50 (UO-31 renal) was 1640 nM. The TGI (UO-31 renal) was 22 µM.
